Patent publication US20090264421A1 (priority 2007, published 2009)

Assays:
TrxR1 = target: T1, TrxR1 (Rattus norvegicus, UniProt O89049); format: biochemical; design: rat liver thioredoxin reductase; purchased Sigma (St. Louis, Mo.); settings: mass spectroscopy; data not shown
T1 sequence (O89049 1-499): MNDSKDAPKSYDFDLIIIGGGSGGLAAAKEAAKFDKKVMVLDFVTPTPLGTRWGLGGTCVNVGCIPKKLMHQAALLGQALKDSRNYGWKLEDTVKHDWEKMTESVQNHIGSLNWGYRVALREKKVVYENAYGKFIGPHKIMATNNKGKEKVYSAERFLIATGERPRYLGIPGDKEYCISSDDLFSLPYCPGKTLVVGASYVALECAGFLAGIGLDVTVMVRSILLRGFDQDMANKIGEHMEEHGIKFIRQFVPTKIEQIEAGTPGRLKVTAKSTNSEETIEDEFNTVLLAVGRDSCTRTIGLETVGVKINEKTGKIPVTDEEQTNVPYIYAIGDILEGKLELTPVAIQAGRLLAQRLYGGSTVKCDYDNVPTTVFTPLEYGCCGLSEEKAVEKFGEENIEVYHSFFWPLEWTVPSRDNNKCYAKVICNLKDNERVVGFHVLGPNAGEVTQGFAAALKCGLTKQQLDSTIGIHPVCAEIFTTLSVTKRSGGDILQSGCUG
Description: Samples were allowed to react at 22° C. for 15 min and then processed for analysis by desalting and fractionating using C18 ZipTips (Millipore Corporation, Bedford, Mass.). For the DTT/chaetocin reaction, the reaction proceeded for 20 min and was then spun down to remove precipitated insulin before loading onto ZipTips. ZipTips were conditioned with 60% acetonitrile:39% water:1% acetic acid and equilibrated with 1% acetic acid. Samples were acidified with glacial acetic acid and loaded onto an equilibrated ZipTip and washed with 1% acetic acid. Fractions were step-eluted off the ZipTip using 10 μl of 1% acetic acid in water containing 20, 30, 40, or 60% acetonitrile. Collected fractions were injected by loop injection (2 μl) directly into the mass spectrometer using a mobile phase of 30% acetonitrile:69% water:1% acetic acid at 5 μl/min. Mass spectra were collected on an Agilent Technologies LC/MSD-TOF mass spectrometer in positive electrospray ionization mode over a m/z range of 400 to 1500. The capillary, fragmentor, skimmer, and OCT RF voltages (3500, 185, 60, 200 volts, respectively) were optimized to enhance signal and minimize instrument fragmentation.

A549 cells = format: cell-based, human; settings: within 1-2 minutes
Text: Measurement of intra- and extracellular chaetocin levels: Tumor cells treated with indicated chaetocin concentrations were washed twice with ice cold PBS, immediately solubilized in 0.5 M perchloric acid, and evaluated “real time” via HPLC using Beckman System Gold Nouveau Software with a dual pump 125 gradient pump system, 507e autosampler, 168 diode array detector, and Beckman Ultrasphere ODS column (4.6 mm×[…]×7 μm) using the following elution profile: 100% water to 100% methanol linear gradient over 40 minutes, followed by a 10 minute period of elution with 100% methanol. Quantitation was accomplished using a standard curve of peak areas derived from analogous HPLC data using varying concentrations of chaetocin.

CN1C(=O)[C@@]23C[C@]4([C@]56C[C@@]78SS[C@@](CO)(C(=O)N7[C@H]5Nc5ccccc56)N(C)C8=O)c5ccccc5N[C@@H]4N2C(=O)[C@]1(CO)SS3 [chaetocin]
covalent adduct with TrxR1 (TrxR1): no evidence of a covalent chaetocin-TrxR1 adduction
intracellular accumulation relative to applied extracellular concentration (A549 cells): 10 fold
